Data taken from article PMC8398081, “Antioxidant Activity, α-Glucosidase Inhibition and UHPLC–ESI–MS/MS Profile of Shmar (Arbutus pavarii Pamp)” (Plants, 2021).

Legend:
[1] = DPPH free radical scavenging assay; details: 30 min in dark, 517 nm; mean ± SD, n=3
Experimental: The DPPH assay was conducted in accordance with Lee et al. method. Initially, 100 µL of DPPH (5.9 mg in 100 mL ethanol) was mixed with 50 µL of the extracts or fractions. The mixtures were then kept in dark for 30 min at room temperature. The absorbance was measured using microplate reader at 517 nm. Quercetin was used as a positive control in the assay. The scavenging activity was calculated using the equation Scavenging Activity (%) = [(Ac – As)/Ac] × 100%, where (Ac) is the absorbance of the blank reagent while (As) is the absorbance of the tested samples. The analysis was performed in triplicates and the results were described as IC50 value.

[2] = Ferric reducing antioxidant power (FRAP) assay; details: 37 °C, 30 min, 593 nm; FeSO4 standard curve; mean ± SD, n=3
Experimental: The FRAP of extracts and fractions were examined according to Kadum et al. method with slight modifications. […] A volume of 10 μL of methanol extract or fractions was transferred into 96-well microplates, followed by addition of 200 μL FRAP reagent and incubation at 37 °C for 30 min. The absorbance was checked through microplate reader (SPECTRAmax PLUS) at 593 nm. The absorbances of ferrous sulfate solution (FeSO4·7H2O), with a range of concentrations between 0.1 and 1 mM were used for plotting a calibration curve. The ascorbic acid was used as positive control and FRAP was presented as mM Fe (II)/g extract for extracts and mM Fe (II)/g fraction for fractions.

Row | SMILES | DPPH IC50 [1] | FRAP [2]
1 | O=c1c(O)c(-c2ccc(O)c(O)c2)oc2cc(O)cc(O)c12 [Quercetin] | 8.6 ± 0.70 µg/mL | 
2 | O=C1O[C@H]([C@@H](O)CO)C(O)=C1O [Ascorbic acid] |  | 180.64 ± 0.01 mmol Fe (II)/g Extract
